Patent US12275961B2, “Method for utilizing engineered dendritic cells to induce gut-homing regulatory T cells and treat gut inflammation” (LOMA LINDA UNIVERSITY, priority 2015, dated 2025)
Several values for one entry are separate records, joined by “and”; a condition that tells them apart may be missing. Identical values can stand only once.

Assays:
[1] = test system: foxp3 expression in activated T cells; assay: foxp3 expression in T cells of splenocytes activated by anti-CD3/CD28 beads with exogenous calcitriol; format: cell-based, mouse; conditions: 72 hours
Description: The naive mouse splenocytes can be cultured for 3 days with 1,25 Vitamin D (100 U/ml, Sigma-Aldrich) in the presence of human (h) IL-2 (50 U/ml) in complete RPMI 1640 medium (10% FBS; HyClone). The cells were harvested and stained for the FoxP3 expression with an anti-FoxP3 Ab (FJK-16s; eBioscience) and CCR9 expression.
A supraphysiological concentration of the active vitamin D metabolite, 1,25[OH]2D (calcitriol), may be necessary for calcitriol to induce foxp3 expression during T cell priming. Foxp3 is a protein that is involved in the regulatory pathway in the development and function of regulatory T cells. To determine whether a supraphysiological concentration is necessary, foxp3 expression in T cells during T cell activation in the presence of exogenous calcitriol can be examined. Splenocytes can be activated by anti-CD3/CD28 magnetic beads. In some cultures, 1,25[OH]2D can be added at a low (20 nM) or high (100 nM) concentration. Cells can be cultured for 72 hours and analyzed for foxp3 expression using flow cytometry. Flow cytometry can be performed by harvesting transduced mCYP27B1-positive DCs, washing them in PBS, resuspending them in the FACS buffer, and analyzing them for GFP expression on a flow cytometer. […] The normal range of human calcitriol serum concentration is 16˜56 pg/ml (0.038 nM 0.13 nM). […]

[2] = some patients; cited from earlier work
[3] = test system: dextran sodium sulfate-induced inflammatory bowel disease; assay: DSS-induced inflammatory bowel disease, six-group study (Example V); format: in vivo, mice
Description: Then, the efficacy of the disclosed agents and method was confirmed in an additional study. […] Injections were made at day 7 post-disease induction by dextran sodium sulfate. All mice were sacrificed at day 10.

[4] = injection at day 7 post-DSS, sacrifice day 10

## C=C1C(=CC=C2CCC[C@]3(C)[C@@H]2CC[C@@H]3[C@H](C)CCCC(C)(C)O)C[C@@H](O)C[C@@H]1O [calcitriol, (1R,3S)-5-[2-[(1R,3aR,7aS)-1-[(2R)-6-hydroxy-6-methyl-heptan-2-yl]-7a-methyl-2,3,3a, 5,6,7-hexahydro-1H-inden-4-ylidene]ethylidene]-4-methylidene-cyclohexane-1,3-diol]
[1]; 20 nM
  foxp3 expression in activated T cells: slightly up regulated
[1]; 100 nM
  foxp3 expression in activated T cells: significantly augment
[2]
  serum calcitriol level tolerated without dose-limiting toxicity (hypercalcemia): up to 300 pg/ml and ≤ 0.72 nM
[3]; calcitriol 200 ng/day/mouse intraperitoneal
  increase in serum calcium: more than 30%
[3]; [4]
  colon lesions / mucosal integrity: did improve colon mucosal integrity
  hypercalcemia: severe hypercalcemia
[3]; injection at day 7 post-DSS, sacrifice day 10, calcitriol 200 ng/day/mouse intraperitoneal
  body weight loss: failed to prevent body weight loss
